Experimental data published in patent US20030186892A1, “Enhancement of endogenous gonadotropin production” (priority 2002, published 2003).

Experiments:
[1] = in vivo
Protocol: A study was conducted to determine the bioavailability of leuprolide acetate when it was administered by the sublingual route. The study was conducted in fifteen healthy postmenopausal or surgically sterilized female volunteers. This study was conducted according to a single-dose, fasting, four-period, open-label, randomized design. […] 4.5 mg or a 1 mg subcutaneous dose. […] Five-ml plasma samples were collected by venipuncture prior to the study and at suitable time intervals after dosing. Plasma leuprolide acetate concentrations data was tabulated and the descriptive statistics were computed.

[2] = system: testosterone; conditions: 5 mg b.i.d. (Group B) compared with 10 mg q.d. (Group C), oral
Protocol: Twenty subjects were assigned to each dosing group. Dosing groups were dosed sequentially, beginning with 5 mg q.d. group (Group A). Dosing for the 5 mg b.i.d. group (Group B) commenced 2 weeks after the initiation of Group A and the dosing for the 10 mg q.d. group (Group C) began 2 weeks after initiation of the 5 mg b.i.d. group. […] For all measurements, the final value obtained before the start of the study drug administration was used as the baseline value for that variable.

## CCNC(=O)[C@@H]1CCCN1C(=O)[C@H](CCCNC(=N)N)NC(=O)[C@H](CC(C)C)NC(=O)[C@@H](CC(C)C)NC(=O)[C@H](Cc1ccc(O)cc1)NC(=O)[C@H](CO)NC(=O)[C@H](Cc1c[nH]c2ccccc12)NC(=O)[C@H](Cc1c[nH]cn1)NC(=O)[C@@H]1CCC(=O)N1 [leuprolide acetate]
[1]
  Administered sublingual dose absorbed compared to subcutaneous reference: Approximately 1%
[2]
  Elevation of plasma testosterone, comparison of regimens: more significant elevation of plasma testosterone
